Format in all cases: physicochemical
Data set [1] is described as follows: Particle size measurement of pulverized suspensions (laser diffraction/scattering LA-920). The conditions noted are these: after pulverization (Example 1, ball mill with Kollidon 17PF and sodium lauryl sulfate). An excerpt: The dispersion medium used for the measurement is usually water, but an aqueous solution of a substance other than the poorly water soluble substance contained in the composition and the like (for some purposes, buffer solutions at various pH levels, mimicked body fluid, 0.5% methylcellulose aqueous solution and the like) can also be used.
“90% frequency particle diameter” is a particle diameter corresponding to the 90% frequency of the above-described integral distribution curve and, in the present invention, means the particle diameter of 90% frequency (90% frequency particle diameter) of the composition dispersed in a liquid, as measured using a laser diffraction/scattering particle size distribution analyzer (LA-920, Horiba Ltd.).
As a dispersion medium, purified water was used.

Data set [2] is described as follows: Degree of crystallinity of composition after pulverization (powder X-ray diffraction, Vonk method). The settings on record: after pulverization (freeze-dried pulverized suspension of Example 1). The procedure:
A powder obtained by freeze-drying the pulverized suspension obtained in Example 1 was enclosed in a quartz glass capillary and measured using a powder X-ray diffraction measurement apparatus (Rigaku Corporation, ultraX TTR2-300), Cu rotating target, parallel beam method (50 kV, 300 mA), scanning angle 3-120 degrees, scan step 0.02 degree/counting time 0.6 sec. The degree of crystallinity was calculated from the obtained X-ray diffraction profile using the Vonk method.
The X-ray diffraction profiles were obtained by measurements using the above-mentioned measurement apparatuses and conditions.

Data set [3] in a line: Particle size measurement of pulverized suspensions (laser diffraction/scattering LA-920).
Data set [4] can be described thus: Degree of crystallinity of composition after pulverization (powder X-ray diffraction, Vonk method). The conditions noted are these: before pulverization.
Setting [5] is: after pulverization (Example 1, ball mill with Kollidon 17PF and sodium lauryl sulfate).
Setting [6] is: before pulverization, substances used in Example 1.

The compound `COc1ccc2c(c1)c(CC(=O)O)c(C)n2C(=O)c1ccc(Cl)cc1` [indomethacin] displayed a D90 in data set [1] of 0.50 μm. Further, the degree of crystallinity was 89.8% in data set [2] and 99.9% in data set [4]. For the same compound, the turbulent factor in data set [2] is given as 0.793; in data set [4], −0.001. Also, the “particle size: D50” value in data set [3] (setting [5]) turned out to be 0.36 μm; in data set [3] (setting [6]), 9.61 μm.

For `CC(C(=O)O)c1cccc(C(=O)c2ccccc2)c1` (stereo not shown) [ketoprofen, Ketoprofen], in data set [1], the D90 turned out to be 0.77 μm. Further, the “particle size: D50” value in data set [3] (setting [5]) amounted to 0.50 μm.

In the case of `CCC1=C(C)CN(C(=O)NCCc2ccc(S(=O)(=O)NC(=O)N[C@H]3CC[C@H](C)CC3)cc2)C1=O` [glimepiride], the D90 in data set [1] amounted to 0.55 μm. The degree of crystallinity in data set [2] was found to be 68.7%; in data set [4], 73.7%. The turbulent factor in data set [2] came to 2.249; in data set [4], 0.622. For the same compound, the “particle size: D50” value in data set [3] (setting [5]) stood at 0.39 μm; in data set [3] (setting [6]), 1.67 μm.

In data set [1], `COc1cc(NS(=O)(=O)c2ccc(N)cc2)nc(OC)n1` [sulfadimethoxine] registered a D90 of 0.65 μm. The “particle size: D50” value in data set [3] (setting [5]) is 0.44 μm.

In the case of `COC1=CC(=O)C[C@@H](C)[C@]12Oc1c(Cl)c(OC)cc(OC)c1C2=O` [griseofluvin, 7-chloro-2′,4,6-trimethoxy-6′-methylspiro[benzofuran-2(3H),1′-[2]cyclohexene]-3,4′-dione], in data set [1], the D90 is recorded as 0.50 μm. In addition, the “particle size: D50” value in data set [3] (setting [5]) was 0.35 μm; in data set [3] (setting [6]) it was 6.35 μm.

In the case of `FC(F)(F)c1ccc(/C=C/c2nc(COc3ccc(CCCCn4ccnn4)cc3)co2)cc1` [compound A, 1-(4-{4-[(2-{(E)-2-[4-(trifluoromethyl)phenyl]ethenyl}-1,3-oxazol-4-yl)methoxy]phenyl}butyl)-1H-1,2,3-triazole], the D90 in data set [1] turned out to be 0.68 μm. The degree of crystallinity in data set [2] was 61.3%; in data set [4], 74.7%. In addition, the turbulent factor is 1.412 in data set [2] and −0.163 in data set [4]. In addition, the “particle size: D50” value came out at 0.42 μm in data set [3] (setting [5]) and 5.68 μm in data set [3] (setting [6]).

For the origin of these results see patent publication US8623405B2, “Finely divided composition containing poorly water soluble substance” (Takeda Pharmaceutical Company Limited, priority 2005, dated 2014).
